Experimental data from patent US11180504B2 (ORCHID PHARMA LTD., priority 2016, dated 2021).
Converted amounts (≈) assume the structure as drawn.

Tests used:
[1] = tested on: methicillin-sensitive Staphylococcus aureus; assay: MIC by broth micro-dilution (CLSI), methicillin-sensitive S. aureus; assay type: cell-based; conditions: Staphylococcus aureus, ATCC 29213 / MSSA, MSSA S. aureus ATCC29213; read-out: MIC
[2] = tested on: carbapenem sensitive Escherichia coli; assay: MIC by broth micro-dilution (CLSI), carbapenem sensitive E. coli; assay type: cell-based; conditions: Escherichia coli, ATCC25922, ESBL −ve E. coli ATCC25922; read-out: MIC
[3] = tested on: extended spectrum β lactamase (ESBL) SHV18 producing Klebsiella pneumoniae; assay: MIC by broth micro-dilution (CLSI), ESBL SHV18 producing K. pneumoniae; assay type: cell-based; conditions: Klebsiella pneumoniae, ATCC700603, 22 h, ESBL +ve (SHV-18) K. pneumoniae ATCC700603; read-out: MIC
[4] = tested on: carbapenemase producing K. pneumoniae; assay: MIC by broth micro-dilution (CLSI), carbapenemase producing K. pneumoniae; assay type: cell-based, Klebsiella pneumoniae; conditions: Klebsiella pneumoniae, ATCCBAA1705, KPC-2 K. pneumoniae ATCC BAA-1705; read-out: MIC
[5] = tested on: carbapenem sensitive Pseudomonas aeruginosa; assay: MIC by broth micro-dilution (CLSI), carbapenem sensitive P. aeruginosa; assay type: cell-based; conditions: Pseudomonas aeruginosa, ATCC27853, Meropenem susceptible P. aeruginosa ATCC27853; read-out: MIC

| Compound | MIC [1] [µg/mL] | MIC [2] [µg/mL] | MIC [3] [µg/mL] | MIC [4] [µg/mL] | MIC [5] [µg/mL] |
| --- | --- | --- | --- | --- | --- |
| C[C@@H](NC(=O)OCC(F)F)[C@H]1C(=O)N2C(C(=O)O)=C(S[C@@H]3CN[C@H](C(=O)N(C)C)C3)[C@H](C)[C@H]12 [Example 41] | 2 (≈ 4.08 µM) | 1 (≈ 2.04 µM) | 16 (≈ 32.6 µM) | 16 (≈ 32.6 µM) | > 128 |
| COC(=S)N[C@H](C)[C@H]1C(=O)N2C(C(=O)O)=C(S[C@@H]3CN[C@H](C(=O)N(C)C)C3)[C@H](C)[C@H]12 [Example 36] | 1 (≈ 2.19 µM) | 2 (≈ 4.38 µM) | 16 (≈ 35 µM) | 16 (≈ 35 µM) | 128 (≈ 280 µM) |
| COCC(=O)N[C@H](C)[C@H]1C(=O)N2C(C(=O)O)=C(S[C@@H]3CN[C@H](C(=O)N(C)C)C3)[C@H](C)[C@H]12 [Example 21] | 2 (≈ 4.4 µM) | 2 (≈ 4.4 µM) | 4 (≈ 8.8 µM) | 4 to 16 (≈ 8.8 to 35.2 µM) | > 128 |
| C[C@H](N)C(=O)N[C@H](C)[C@H]1C(=O)N2C(C(=O)O)=C(S[C@@H]3CN[C@H](C(=O)N(C)C)C3)[C@H](C)[C@H]12 [Example 68] | 32 (≈ 70.6 µM) | 4 (≈ 8.82 µM) | 8 (≈ 17.6 µM) | > 128 | 32 to 64 (≈ 70.6 to 141 µM) |
| C[C@@H](NC(=O)C(F)F)[C@H]1C(=O)N2C(C(=O)O)=C(S[C@@H]3CN[C@H](C(=O)N4CCC[C@H](N)C4)C3)[C@H](C)[C@H]12 [Example 122] | 1 (≈ 1.94 µM) | 1 (≈ 1.94 µM) | 4 (≈ 7.76 µM) | 4 (≈ 7.76 µM) | 16 (≈ 31 µM) |
| CNCC(=O)N[C@H](C)[C@H]1C(=O)N2C(C(=O)O)=C(S[C@@H]3CN[C@H](C(=O)N4C[C@@H](N)C[C@H]4CNS(N)(=O)=O)C3)[C@H](C)[C@H]12 [Example 216] | 32 (≈ 53.1 µM) | 1 (≈ 1.66 µM) | 16 (≈ 26.5 µM) | 4 (≈ 6.64 µM) | 4 (≈ 6.64 µM) |
| C[C@@H](NC(=O)C(F)F)[C@H]1C(=O)N2C(C(=O)O)=C(S[C@@H]3CN[C@H](C(=O)N4CCC(C(=O)O)CC4)C3)[C@H](C)[C@H]12 [Example 37] | 16 (≈ 29.4 µM) | 1 (≈ 1.84 µM) | 1 (≈ 1.84 µM) | 16 (≈ 29.4 µM) | > 128 |
| COC(=O)N[C@H]1CCN(C(=O)[C@@H]2C[C@H](SC3=C(C(=O)O)N4C(=O)[C@H]([C@@H](C)NC(=O)C(F)F)[C@H]4[C@H]3C)CN2)C1 [Example 123] | 2 (≈ 3.57 µM) | 0.5 (≈ 0.894 µM) | 2 (≈ 3.57 µM) | 4 (≈ 7.15 µM) | 64 (≈ 114 µM) |
| C[C@@H](NC(=O)C(F)F)[C@H]1C(=O)N2C(C(=O)O)=C(S[C@@H]3CN[C@H](C(=O)N4CC[C@H](NS(=O)(=O)N(C)C)C4)C3)[C@H](C)[C@H]12 [Example 117] | 2 (≈ 3.29 µM) | 0.5 (≈ 0.821 µM) | 2 (≈ 3.29 µM) | 4 (≈ 6.57 µM) | > 128 |
| C[C@@H](NC(=O)C(F)F)[C@H]1C(=O)N2C(C(=O)O)=C(S[C@@H]3CN[C@H](C(=O)N4C[C@H](N)[C@@H](N)C4)C3)[C@H](C)[C@H]12 [Example 194] | 8 (≈ 15.5 µM) | 2 (≈ 3.87 µM) | 8 (≈ 15.5 µM) | 16 (≈ 31 µM) | 16 (≈ 31 µM) |
| CC(C)OC(=O)C(=O)N[C@H](C)[C@H]1C(=O)N2C(C(=O)O)=C(S[C@@H]3CN[C@H](C(=O)N(C)C)C3)[C@H](C)[C@H]12 [Example 73] | 4 (≈ 8.05 µM) | 1 to 2 (≈ 2.01 to 4.03 µM) | 4 (≈ 8.05 µM) | 8 (≈ 16.1 µM) | 4 to 16 (≈ 8.05 to 32.2 µM) |
| C[C@@H](NC(=O)C(F)(F)CN)[C@H]1C(=O)N2C(C(=O)O)=C(S[C@@H]3CN[C@H](C(=O)N(C)C)C3)[C@H](C)[C@H]12 [Example 138] | 32 (≈ 65.4 µM) | 4 (≈ 8.17 µM) | 32 (≈ 65.4 µM) | 64 (≈ 131 µM) | > 128 |
| C[C@@H](NC(=O)C(F)F)[C@H]1C(=O)N2C(C(=O)O)=C(S[C@@H]3CN[C@H](C(=O)N4C[C@@H](N)C[C@H]4CN)C3)[C@H](C)[C@H]12 [Example 183] | 8 (≈ 15.1 µM) | 2 (≈ 3.77 µM) | 32 (≈ 60.3 µM) | 16 (≈ 30.2 µM) | 64 (≈ 121 µM) |
| C[C@@H](NS(=O)(=O)c1ccc(F)cc1)[C@H]1C(=O)N2C(C(=O)O)=C(S[C@@H]3CN[C@H](C(=O)N(C)C)C3)[C@H](C)[C@H]12 [Example 12] | 8 (≈ 14.8 µM) | 4 (≈ 7.4 µM) | 128 (≈ 237 µM) | 32 (≈ 59.2 µM) | > 128 |
| C[C@@H](NC(=O)C(F)F)[C@H]1C(=O)N2C(C(=O)O)=C(S[C@@H]3CN[C@H](C(=O)N4CC(N)C4)C3)[C@H](C)[C@H]12 [Example 131] | 4 (≈ 8.2 µM) | 0.5 (≈ 1.03 µM) | 2 (≈ 4.1 µM) | 8 (≈ 16.4 µM) | 16 (≈ 32.8 µM) |
| C[C@@H](NC(=O)C(F)F)[C@H]1C(=O)N2C(C(=O)O)=C(S[C@@H]3CN[C@H](C(=O)N4CCSCC4)C3)[C@H](C)[C@H]12 [Example 35] | 1 (≈ 1.93 µM) | 1 (≈ 1.93 µM) | 4 (≈ 7.71 µM) | 2 to 4 (≈ 3.86 to 7.71 µM) | > 128 |
